Measured values from patent US6841661B2, “Glycopeptide antibacterial compounds, compositions containing same and methods of using same” (Princeton Univerisity, priority 1999, dated 2005).

Assays:
[1] = tested on: E. faecium CL 4931 (VanA); assay: microbe, parasite or virus in culture; assay type: cell-based; set-up: CL4931 (in vitro testing): unit not given here; conditions: Tables 7 and 8; unit not given
Description: (§1) National Committee for Clinical Laboratory Standards (NCCLS) guidelines [Methods for Dilution Antimicrobial Susceptibility Tests for Bacteria that Grow Aerobically-Fourth Edition; Approved Standard (NCCLS Document M7-A4, January 1997)] are used to establish the assay, although variations are made to optimize the published method according to the specific needs of the present investigation.
(§2) The test panel currently includes eight enterococci and 13 staphylococci, which are selected based upon their antibiotic susceptibility profiles. The methicillin-sensitive Staphylococcus aureus (MSSA) strain MB2985 (Smith isolate) is used to assesses the potential for serum protein binding of the compounds. The paired Gram-negative strains ASP #49 (envA-) and ASP #50 (envA+) (M. Salvatore/N. Lee) are included to judge membrane effects. Table 3 presents a detailed description of the strains included in the panel, including some of the sources of the strains of bacteria.
(§3) The glycopeptide antibiotic teicoplanin is included whenever possible.
(§4) TSB, containing 10% HS* for vancomycin intermediate S. aurcus/methicillin-resistant S. aureus (VISA/MRSA) strains, is inoculated from an appropriate source (frozen broth or agar slant) and grown approximately 17 hr at 35° C. with shaking at 220 rpm. Cultures are grown in tubes with a volume of 5 ml for enterococci and 2 ml for all other strains.
(§5) Four milliliter (4 ml) overnight culture is added to 36 ml physiological saline to obtain tenfold dilutions (enterococci). Overnight culture (0.4 ml) is added to 39.6 ml saline to obtain 100-fold dilutions (all strains except enterococci). Diluted cultures are maintained on ice until time of inoculation of test plates.
(§6) The number of CFU/mL is determined on BHI agar plates, although this is not done routinely because titers of overnight cultures are relatively constant. The test media include: • BHI for enterococci and VISA/MRSA; • MH II (i.e., cation-adjusted Mueller-Hinton broth) for MRS, MSS and E. coli.; • MH II+HSA for MSSA is prepared as follows: • a. 2×MHII+86mg/ml HSA • b. Dissolve 4.3 g HSA in 50 ml autoclaved 2x MH II. • c. pH to 7.0 by adding 2M MOPS, sodium. • d. Filter sterilize using 0.22 μm Coming cellulose acetate filter, used because of reported low protein binding. • e. 1×MH II+43 mg/ml HSA • f. Dilute the 2×medium twofold and filter as above. 5.8.6. Preparation of Test Plates
(§7) Using a Denley liquid handling system (or similar automatic device), 100 μ1×medium is added to each well in columns 2-12 of a 96-well microtiter dish. Using a multichannel pipettor, 100 μl 2×medium is added to each well in column 1. Plates may be filled on the day prior to assay, wrapped in plastic bags and refrigerated.
(§8) Vancomycin, Schering 29482, and teicoplanin are prepared on a weight per volume basis using 10 mM 3-(N-morpholino)propane-sulfonic acid (MOPS) buffer pH 7. Test compounds are received in solution in appropriate solvent (typically as 1 mg/ml in DMSO) or are dissolved in appropriate solvent prior to further dilution in 10 mM MOPS buffer, ph7. Consistent with NCCLS guidelines, antibiotics are handled aseptically but are not otherwise sterilized.
(§9) 100 μl appropriately diluted antibiotic solution is added to the first well of the designated row of the 96-well microtiter dish and serially diluted by twofold across the row using the Denley liquid handling system. With the aid of a Dynatech NEC 2000 inoculator, each well of the microtiter dish is inoculated with 1.5 μl diluted overnight culture, yielding approximately 1-5×10^6 CFU/ml for enterococci and approximately 3-7×10^5 CFU/ml for all other strains. Dishes are placed in stacks of no more than five, wrapped in plastic bags and incubated at 35° C. • Indication of result(s) type (% INH, IC50, Zone size, etc.) • MIC=minimum inhibitory concentration ps 5.8.9. Interpretation of the Results on the Basis of Activity […]

[2] = tested on: E. faecium CL 5053 (VanA); assay: microbe, parasite or virus in culture; assay type: cell-based; set-up: CL5053 (in vitro testing): unit not given here; conditions: Tables 7 and 8; unit not given
Description: as §1, §2, §3, §4, §5, §6, §7, §8, §9

[3] = tested on: E. faecium CL 5242 (VanA); assay: microbe, parasite or virus in culture; assay type: cell-based; set-up: CL5242 (in vitro testing): unit not given here; conditions: Tables 7 and 8; unit not given
Description: as §1, §2, §3, §4, §5, §6, §7, §8, §9

[4] = tested on: E. faecalis CL 4877 (VanB); assay: microbe, parasite or virus in culture; assay type: cell-based; set-up: CL4877 (in vitro testing): unit not given here; conditions: Tables 7 and 8; unit not given
Description: as §1, §2, §3, §4, §5, §6, §7, §8, §9

[5] = tested on: CL 4931, CL 5053, CL 5242 and CL 4877; assay type: cell-based, E. faecium, E. faecalis; set-up: unit not given here; conditions: mean of CL4931, CL5053, CL5242, CL4877; unit not given
Description: as §1, §2, §3, §4, §5, §6, §7, §8, §9

Structure (SMILES) | CL4931 (in vitro testing) [1] | CL5053 (in vitro testing) [2] | CL5242 (in vitro testing) [3] | CL4877 (in vitro testing) [4] | Mean [5]
CNC(CC(C)C)C(=O)NC1C(=O)NC(CC(N)=O)C(=O)NC2C(=O)NC3C(=O)NC(C(=O)NC(C(=O)O)c4cc(O)cc(O)c4-c4cc3ccc4O)C(O)c3ccc(c(Cl)c3)Oc3cc2cc(c3OC2OC(CNCC(C)C)C(O)C(O)C2OC2CC(C)(NCc3ccc(OCc4ccc(Cl)c(Cl)c4)cc3)C(O)C(C)O2)Oc2ccc(cc2Cl)C1O (stereo not drawn) [Compound 159] | 16 | 16 | 4 | 4 | 10.0
CNC(CC(C)C)C(=O)NC1C(=O)NC(CC(N)=O)C(=O)NC2C(=O)NC3C(=O)NC(C(=O)NC(C(=O)O)c4cc(O)cc(O)c4-c4cc3ccc4O)C(O)c3ccc(c(Cl)c3)Oc3cc2cc(c3OC2OC(CNCCCN3CCCC3)C(O)C(O)C2OC2CC(C)(NCc3ccc(OCc4ccc(Cl)c(Cl)c4)cc3)C(O)C(C)O2)Oc2ccc(cc2Cl)C1O (stereo not drawn) [Compound 160] | 16 | 16 | 4 | 16 | 13.0
CNC(CC(C)C)C(=O)NC1C(=O)NC(CC(N)=O)C(=O)NC2C(=O)NC3C(=O)NC(C(=O)NC(C(=O)O)c4cc(O)cc(O)c4-c4cc3ccc4O)C(O)c3ccc(c(Cl)c3)Oc3cc2cc(c3OC2OC(CNCCCN)C(O)C(O)C2OC2CC(C)(NCc3ccc(OCc4ccc(Cl)c(Cl)c4)cc3)C(O)C(C)O2)Oc2ccc(cc2Cl)C1O (stereo not drawn) [Compound 161] | 16 | 16 | 4 | 16 | 13.0
CNC(CC(C)C)C(=O)NC1C(=O)NC(CC(N)=O)C(=O)NC2C(=O)NC3C(=O)NC(C(=O)NC(C(=O)O)c4cc(O)cc(O)c4-c4cc3ccc4O)C(O)c3ccc(c(Cl)c3)Oc3cc2cc(c3OC2OC(CN3CCCC3)C(O)C(O)C2OC2CC(C)(NCc3ccc(OCc4ccc(Cl)c(Cl)c4)cc3)C(O)C(C)O2)Oc2ccc(cc2Cl)C1O (stereo not drawn) [Compound 163] | 16 | 32 | 4 | 2 | 13.5
CNC(CC(C)C)C(=O)NC1C(=O)NC(CC(N)=O)C(=O)NC2C(=O)NC3C(=O)NC(C(=O)NC(C(=O)O)c4cc(O)cc(O)c4-c4cc3ccc4O)C(O)c3ccc(c(Cl)c3)Oc3cc2cc(c3OC2OC(CNC3CC3)C(O)C(O)C2OC2CC(C)(NCc3ccc(OCc4ccc(Cl)c(Cl)c4)cc3)C(O)C(C)O2)Oc2ccc(cc2Cl)C1O (stereo not drawn) [Compound 165] | 16 | 16 | 8 | 16 | 14.0
CNC(CC(C)C)C(=O)NC1C(=O)NC(CC(N)=O)C(=O)NC2C(=O)NC3C(=O)NC(C(=O)NC(C(=O)O)c4cc(O)cc(O)c4-c4cc3ccc4O)C(O)c3ccc(c(Cl)c3)Oc3cc2cc(c3OC2OC(CN3CCC(N(C)C)C3)C(O)C(O)C2OC2CC(C)(NCc3ccc(OCc4ccc(Cl)c(Cl)c4)cc3)C(O)C(C)O2)Oc2ccc(cc2Cl)C1O (stereo not drawn) [Compound 166] | 8 | 16 | 2 | 32 | 14.5
CNC(CC(C)C)C(=O)NC1C(=O)NC(CC(N)=O)C(=O)NC2C(=O)NC3C(=O)NC(C(=O)NC(C(=O)O)c4cc(O)cc(O)c4-c4cc3ccc4O)C(O)c3ccc(c(Cl)c3)Oc3cc2cc(c3OC2OC(CN3CCNCC3)C(O)C(O)C2OC2CC(C)(NCc3ccc(OCc4ccc(Cl)c(Cl)c4)cc3)C(O)C(C)O2)Oc2ccc(cc2Cl)C1O (stereo not drawn) [Compound 167] | 8 | 16 | 4 | 32 | 15.0
CNC(CC(C)C)C(=O)NC1C(=O)NC(CC(N)=O)C(=O)NC2C(=O)NC3C(=O)NC(C(=O)NC(C(=O)O)c4cc(O)cc(O)c4-c4cc3ccc4O)C(O)c3ccc(c(Cl)c3)Oc3cc2cc(c3OC2OC(CN3CCCCC3)C(O)C(O)C2OC2CC(C)(NCc3ccc(OCc4ccc(Cl)c(Cl)c4)cc3)C(O)C(C)O2)Oc2ccc(cc2Cl)C1O (stereo not drawn) [Compound 168] | 32 | 16 | 8 | 1 | 18.3
CNC(CC(C)C)C(=O)NC1C(=O)NC(CC(N)=O)C(=O)NC2C(=O)NC3C(=O)NC(C(=O)NC(C(=O)O)c4cc(O)cc(O)c4-c4cc3ccc4O)C(O)c3ccc(c(Cl)c3)Oc3cc2cc(c3OC2OC(CN3CCOCC3)C(O)C(O)C2OC2CC(C)(NCc3ccc(OCc4ccc(Cl)c(Cl)c4)cc3)C(O)C(C)O2)Oc2ccc(cc2Cl)C1O (stereo not drawn) [Compound 169] | 32 | 32 | 8 | 1 | 18.3
CNC(CC(C)C)C(=O)NC1C(=O)NC(CC(N)=O)C(=O)NC2C(=O)NC3C(=O)NC(C(=O)NC(C(=O)O)c4cc(O)cc(O)c4-c4cc3ccc4O)C(O)c3ccc(c(Cl)c3)Oc3cc2cc(c3OC2OC(CN3CCC(N(C)C)CC3)C(O)C(O)C2OC2CC(C)(NCc3ccc(OCc4ccc(Cl)c(Cl)c4)cc3)C(O)C(C)O2)Oc2ccc(cc2Cl)C1O (stereo not drawn) [Compound 170] | 16 | 32 | 8 | 32 | 22.0
CNC(CC(C)C)C(=O)NC1C(=O)NC(CC(N)=O)C(=O)NC2C(=O)NC3C(=O)NC(C(=O)NC(C(=O)O)c4cc(O)cc(O)c4-c4cc3ccc4O)C(O)c3ccc(c(Cl)c3)Oc3cc2cc(c3OC2OC(CN)C(O)C(O)C2OC2CC(C)(NCc3ccc(OCc4ccc(Cl)cc4)cc3)C(O)C(C)O2)Oc2ccc(cc2Cl)C1O (stereo not drawn) [Compound 171] | 4 | 8 | 1 | 16 | 7.25
CNC(CC(C)C)C(=O)NC1C(=O)NC(CC(N)=O)C(=O)NC2C(=O)NC3C(=O)NC(C(=O)NC(C(=O)O)c4cc(O)cc(O)c4-c4cc3ccc4O)C(O)c3ccc(c(Cl)c3)Oc3cc2cc(c3OC2OC(CN)C(O)C(O)C2OC2CC(C)(NCc3ccc(OCc4cccc(Cl)c4)cc3)C(O)C(C)O2)Oc2ccc(cc2Cl)C1O (stereo not drawn) [Compound 172] | 16 | 16 | 2 | >16 | 12.5
